Experimental data from the supplement of paper PMC8612539.
Converted amounts (≈) assume the structure as drawn.

Test system: Pasteurella multocida
Experiment: minimum inhibitory concentration (MIC)
Procedure: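 Broth microdilution MIC (Sensititre BOPO7F bovine plate, CLSI methods) of 19 antimicrobials against field isolates of P. multocida, M. haemolytica, H. somni (deep nasopharyngeal swabs) and E. coli, Enterococcus spp. (rectal swabs) from weaned dairy heifers. Incubation 16-24 h at 35 C. MIC is the lowest concentration preventing visible growth. Values with <= or > lie at the tested range limits. Trimethoprim-sulfamethoxazole is given as the trimethoprim component of a 1:19 mixture.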

CC[C@H]1OC(=O)C[C@@H](O)[C@H](C)[C@@H](O[C@@H]2O[C@H](C)[C@@H](O)[C@H](N(C)C)[C@H]2O)[C@@H](CCN2C[C@H](C)C[C@H](C)C2)C[C@@H](C)C(=O)/C=C/C(C)=C/[C@@H]1CO[C@@H]1O[C@H](C)[C@@H](O)[C@@H](OC)[C@H]1OC [Tilmicosin]
Settings | minimum inhibitory concentration [µg/mL]
isolate (source animal id): 10 | > 16
isolate (source animal id): 11 | > 16
isolate (source animal id): 12 | > 16
isolate (source animal id): 19 | > 16
isolate (source animal id): 23 | > 16
isolate (source animal id): 26 | > 16
isolate (source animal id): 98 | > 16
isolate (source animal id): 104 | > 16
isolate (source animal id): 115 | > 16
isolate (source animal id): 117 | > 16
isolate (source animal id): 118 | > 16
isolate (source animal id): 121 | > 16
isolate (source animal id): 124 | > 16
isolate (source animal id): 125 | > 16
isolate (source animal id): 128 | > 16
isolate (source animal id): 131 | > 16
isolate (source animal id): 135 | > 16
isolate (source animal id): 136 | > 16
isolate (source animal id): 140 | > 16
isolate (source animal id): 144 | > 16
isolate (source animal id): 146 | > 16
isolate (source animal id): 150 | > 16
isolate (source animal id): 151 | > 16
isolate (source animal id): 153 | > 16
isolate (source animal id): 155 | > 16
isolate (source animal id): 157 | 16 (≈ 18.4 µM)
isolate (source animal id): 160 | > 16
isolate (source animal id): 164 | > 16
isolate (source animal id): 165 | > 16
isolate (source animal id): 167 | 8 (≈ 9.2 µM)
isolate (source animal id): 168 | > 16
isolate (source animal id): 169 | 4 (≈ 4.6 µM)
isolate (source animal id): 170 | 16 (≈ 18.4 µM)
isolate (source animal id): 171 | 8 (≈ 9.2 µM)
isolate (source animal id): 172 | 8 (≈ 9.2 µM)
isolate (source animal id): 173 | > 16
isolate (source animal id): 174 | 8 (≈ 9.2 µM)
isolate (source animal id): 175 | 8 (≈ 9.2 µM)
isolate (source animal id): 176 | 8 (≈ 9.2 µM)
isolate (source animal id): 177 | 8 (≈ 9.2 µM)
isolate (source animal id): 178 | 4 (≈ 4.6 µM)
isolate (source animal id): 179 | 4 (≈ 4.6 µM)
isolate (source animal id): 182 | 16 (≈ 18.4 µM)
isolate (source animal id): 192 | 4 (≈ 4.6 µM)
isolate (source animal id): 193 | 8 (≈ 9.2 µM)
isolate (source animal id): 195 | 8 (≈ 9.2 µM)
isolate (source animal id): 196 | 8 (≈ 9.2 µM)
isolate (source animal id): 197 | 16 (≈ 18.4 µM)
isolate (source animal id): 198 | > 16
isolate (source animal id): 199 | 8 (≈ 9.2 µM)
isolate (source animal id): 200 | 4 (≈ 4.6 µM)
isolate (source animal id): 201 | 8 (≈ 9.2 µM)
isolate (source animal id): 203 | 4 (≈ 4.6 µM)
isolate (source animal id): 204 | 8 (≈ 9.2 µM)
isolate (source animal id): 205 | > 16
isolate (source animal id): 206 | 8 (≈ 9.2 µM)
isolate (source animal id): 207 | 8 (≈ 9.2 µM)
isolate (source animal id): 208 | 4 (≈ 4.6 µM)
isolate (source animal id): 209 | 4 (≈ 4.6 µM)
isolate (source animal id): 210 | > 16
isolate (source animal id): 213 | 8 (≈ 9.2 µM)
isolate (source animal id): 216 | 8 (≈ 9.2 µM)
isolate (source animal id): 223 | > 16
isolate (source animal id): 227 | 4 (≈ 4.6 µM)
isolate (source animal id): 229 | > 16
isolate (source animal id): 233 | > 16
isolate (source animal id): 234 | > 16
isolate (source animal id): 237 | > 16
isolate (source animal id): 241 | > 16
isolate (source animal id): 245 | > 16
isolate (source animal id): 247 | > 16
isolate (source animal id): 250 | > 16
isolate (source animal id): 254 | > 16
isolate (source animal id): 255 | > 16
isolate (source animal id): 258 | 8 (≈ 9.2 µM)
isolate (source animal id): 261 | > 16
isolate (source animal id): 262 | > 16
isolate (source animal id): 269 | 8 (≈ 9.2 µM)
isolate (source animal id): 270 | > 16
isolate (source animal id): 274 | > 16
isolate (source animal id): 275 | > 16
isolate (source animal id): 276 | > 16
isolate (source animal id): 277 | 8 (≈ 9.2 µM)
isolate (source animal id): 278 | > 16
isolate (source animal id): 279 | > 16
isolate (source animal id): 280 | > 16
isolate (source animal id): 284 | > 16
isolate (source animal id): 285 | > 16
isolate (source animal id): 287 | > 16
isolate (source animal id): 290 | > 16
isolate (source animal id): 294 | > 16
isolate (source animal id): 295 | > 16
isolate (source animal id): 296 | > 16
isolate (source animal id): 307 | > 16
isolate (source animal id): 310 | > 16
isolate (source animal id): 311 | > 16
isolate (source animal id): 312 | > 16
isolate (source animal id): 313 | > 16
isolate (source animal id): 315 | > 16
isolate (source animal id): 316 | > 16

CN1C[C@@H]2C[C@H]1CN2c1cc2c(cc1F)c(=O)c(C(=O)O)cn2C1CC1 [Danofloxacin]
Settings | minimum inhibitory concentration [µg/mL]
isolate (source animal id): 10 | > 1
isolate (source animal id): 11 | 1 (≈ 2.8 µM)
isolate (source animal id): 12 | > 1
isolate (source animal id): 19 | > 1
isolate (source animal id): 23 | 1 (≈ 2.8 µM)
isolate (source animal id): 26 | > 1
isolate (source animal id): 98 | > 1
isolate (source animal id): 104 | 1 (≈ 2.8 µM)
isolate (source animal id): 115 | ≤ 0.12
isolate (source animal id): 117 | > 1
isolate (source animal id): 118 | > 1
isolate (source animal id): 121 | ≤ 0.12
isolate (source animal id): 124 | > 1
isolate (source animal id): 125 | > 1
isolate (source animal id): 128 | ≤ 0.12
isolate (source animal id): 131 | > 1
isolate (source animal id): 135 | > 1
isolate (source animal id): 136 | ≤ 0.12
isolate (source animal id): 140 | > 1
isolate (source animal id): 144 | 1 (≈ 2.8 µM)
isolate (source animal id): 146 | 1 (≈ 2.8 µM)
isolate (source animal id): 150 | ≤ 0.12
isolate (source animal id): 151 | ≤ 0.12
isolate (source animal id): 153 | 1 (≈ 2.8 µM)
isolate (source animal id): 155 | > 1
isolate (source animal id): 157 | > 1
isolate (source animal id): 160 | ≤ 0.12
isolate (source animal id): 164 | ≤ 0.12
isolate (source animal id): 165 | ≤ 0.12
isolate (source animal id): 167 | ≤ 0.12
isolate (source animal id): 168 | > 1
isolate (source animal id): 169 | ≤ 0.12
isolate (source animal id): 170 | ≤ 0.12
isolate (source animal id): 171 | ≤ 0.12
isolate (source animal id): 172 | ≤ 0.12
isolate (source animal id): 173 | > 1
isolate (source animal id): 174 | ≤ 0.12
isolate (source animal id): 175 | ≤ 0.12
isolate (source animal id): 176 | ≤ 0.12
isolate (source animal id): 177 | ≤ 0.12
isolate (source animal id): 178 | ≤ 0.12
isolate (source animal id): 179 | ≤ 0.12
isolate (source animal id): 182 | ≤ 0.12
isolate (source animal id): 192 | ≤ 0.12
isolate (source animal id): 193 | ≤ 0.12
isolate (source animal id): 195 | ≤ 0.12
isolate (source animal id): 196 | ≤ 0.12
isolate (source animal id): 197 | ≤ 0.12
isolate (source animal id): 198 | > 1
isolate (source animal id): 199 | ≤ 0.12
isolate (source animal id): 200 | ≤ 0.12
isolate (source animal id): 201 | ≤ 0.12
isolate (source animal id): 203 | ≤ 0.12
isolate (source animal id): 204 | ≤ 0.12
isolate (source animal id): 205 | > 1
isolate (source animal id): 206 | ≤ 0.12
isolate (source animal id): 207 | ≤ 0.12
isolate (source animal id): 208 | ≤ 0.12
isolate (source animal id): 209 | ≤ 0.12
isolate (source animal id): 210 | > 1
isolate (source animal id): 213 | ≤ 0.12
isolate (source animal id): 216 | ≤ 0.12
isolate (source animal id): 223 | > 1
isolate (source animal id): 227 | ≤ 0.12
isolate (source animal id): 229 | > 1
isolate (source animal id): 233 | > 1
isolate (source animal id): 234 | > 1
isolate (source animal id): 237 | > 1
isolate (source animal id): 241 | > 1
isolate (source animal id): 245 | > 1
isolate (source animal id): 247 | 1 (≈ 2.8 µM)
isolate (source animal id): 250 | > 1
isolate (source animal id): 254 | > 1
isolate (source animal id): 255 | > 1
isolate (source animal id): 258 | ≤ 0.12
isolate (source animal id): 261 | > 1
isolate (source animal id): 262 | > 1
isolate (source animal id): 269 | 0.25 (≈ 0.7 µM)
isolate (source animal id): 270 | > 1
isolate (source animal id): 274 | > 1
isolate (source animal id): 275 | > 1
isolate (source animal id): 276 | > 1
isolate (source animal id): 277 | 0.25 (≈ 0.7 µM)
isolate (source animal id): 278 | > 1
isolate (source animal id): 279 | 1 (≈ 2.8 µM)
isolate (source animal id): 280 | > 1
isolate (source animal id): 284 | > 1
isolate (source animal id): 285 | > 1
isolate (source animal id): 287 | > 1
isolate (source animal id): 290 | ≤ 0.12
isolate (source animal id): 294 | ≤ 0.12
isolate (source animal id): 295 | ≤ 0.12
isolate (source animal id): 296 | > 1
isolate (source animal id): 307 | ≤ 0.12
isolate (source animal id): 310 | ≤ 0.12
isolate (source animal id): 311 | ≤ 0.12
isolate (source animal id): 312 | > 1
isolate (source animal id): 313 | > 1
isolate (source animal id): 315 | > 1
isolate (source animal id): 316 | > 1
